According to patent US9643970B2, “Substituted imidazo [1,5-a]pyrazines as PDE9 inhibitors” (H Lundbeck A/S, priority 2012, dated 2017):
pIC50: −log10 of the molar value. Like-named read-outs stand apart in the source and are kept apart here.

Target: PDE9 (Homo sapiens, UniProt O76083)
Assay: PDE9 inhibition assay
Format: biochemical
Description: Reactions are initiated by addition of the cyclic nucleotide substrate, and reactions are allowed to proceed for one hr at room temperature before being terminated through mixing with 15 uL 8 mg/mL yttrium silicate SPA beads (Amersham). […] IC50 values were calculated by non linear regression using XLfit (IDBS).

[1] = SPA assay, 10 nM 3H-cAMP, 1 hour incubation, read-out: IC50

PDE9, sequence (O76083 whole entry): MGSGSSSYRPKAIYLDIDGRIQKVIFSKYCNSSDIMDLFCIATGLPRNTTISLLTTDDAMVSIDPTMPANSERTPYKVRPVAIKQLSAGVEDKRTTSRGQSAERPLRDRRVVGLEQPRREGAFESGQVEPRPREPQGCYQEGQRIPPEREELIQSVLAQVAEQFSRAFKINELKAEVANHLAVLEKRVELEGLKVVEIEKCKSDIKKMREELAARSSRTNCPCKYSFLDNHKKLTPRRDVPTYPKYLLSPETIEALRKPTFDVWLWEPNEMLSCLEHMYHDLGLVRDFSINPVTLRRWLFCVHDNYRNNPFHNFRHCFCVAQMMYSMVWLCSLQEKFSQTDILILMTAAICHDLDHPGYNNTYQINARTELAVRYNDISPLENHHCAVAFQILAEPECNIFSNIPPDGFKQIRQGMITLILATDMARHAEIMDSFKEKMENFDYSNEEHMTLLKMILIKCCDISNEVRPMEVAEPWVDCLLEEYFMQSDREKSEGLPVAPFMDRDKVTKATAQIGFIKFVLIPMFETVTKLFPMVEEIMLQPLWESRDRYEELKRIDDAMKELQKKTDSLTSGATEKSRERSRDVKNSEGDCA

pIC50 [1] | pIC50 | Structure (SMILES)
7.66 |  | O=c1[nH]c(CN2CC(c3ncccn3)C2)cn2c(-c3ccc(F)cc3)ncc12 [Compound 53, 3-(4-fluorophenyl)-6-[(3-pyrimidin-2-ylazetidin-1-yl)methyl]-7h-imidazo[1,5-a]pyrazin-8-one]
8.15 |  | CC1CN(Cc2ccc(F)cc2)CC1c1cn2c(C3CCOCC3)ncc2c(=O)[nH]1 (stereo not drawn) [Compound 89, 6-[1-[(4-fluorophenyl)methyl]-4-methyl-pyrrolidin-3-yl]-3-tetrahydropyran-4-yl-7h-imidazo[1,5-a]pyrazin-8-one]
 | 7.66 | CC(C)OC1CN(C(C)c2cn3c(-c4ccc(F)cc4)ncc3c(=O)[nH]2)C1 (stereo not drawn) [Compound 116, 3-(4-fluorophenyl)-6-[1-(3-isopropoxyazetidin-1-yl)ethyl]-7h-imidazo[1,5-a]pyrazin-8-one]
 | 6.94 | O=c1[nH]c(CN2CC(Oc3ccc(F)cc3)C2)cn2c(C3CCOCC3)ncc12 [Compound 75, 6-[[3-(4-fluorophenoxy)azetidin-1-yl]methyl]-3-tetrahydropyran-4-yl-7h-imidazo[1,5-a]pyrazin-8-one]
7.39 |  | O=c1[nH]c(CN2CC(Oc3c(F)cccc3F)C2)cn2c(-c3ccc(F)cc3)ncc12 [Compound 121, 6-[[3-(2,6-difluorophenoxy)azetidin-1-yl]methyl]-3-(4-fluorophenyl)-7h-imidazo[1,5-a]pyrazin-8-one]
7.43 |  | CC1CN(CC2CCCCC2)CC1c1cn2c(C3CCOCC3)ncc2c(=O)[nH]1 (stereo not drawn) [Compound 115, 6-[1-(cyclohexylmethyl)-4-methyl-pyrrolidin-3-yl]-3-tetrahydropyran-4-yl-7h-imidazo[1,5-a]pyrazin-8-one]
 | 7.52 | O=c1[nH]c(CN2CC(Oc3ncccn3)C2)cn2c(-c3ccccc3)ncc12 [Compound 5, 3-phenyl-6-[(3-pyrimidin-2-yloxyazetidin-1-yl)methyl]-7h-imidazo[1,5-a]pyrazin-8-one]
6.75 |  | O=c1[nH]c(CN2CC(Oc3ccccc3)C2)cn2c(-c3ccc(F)cc3)ncc12 [Compound 73, 3-(4-fluorophenyl)-6-[(3-phenoxyazetidin-1-yl)methyl]-7h-imidazo[1,5-a]pyrazin-8-one]
6.72 |  | CC1CN(Cc2ccc(F)cc2)CC1c1cn2c(-c3ccc(OC(F)(F)F)cc3)ncc2c(=O)[nH]1 (stereo not drawn) [Compound 119, 6-[1-[(4-fluorophenyl)methyl]-4-methyl-pyrrolidin-3-yl]-3-[4-(trifluoromethoxy)phenyl]-7h-imidazo[1,5-a]pyrazin-8-one]
7.55 |  | O=c1[nH]c(CN2CCC(Nc3ccccc3)C2)cn2c(-c3ccccc3)ncc12 (stereo not drawn) [Compound 17, 6-[(3-anilinopyrrolidin-1-yl)methyl]-3-phenyl-7h-imidazo[1,5-a]pyrazin-8-one]
 | 7.24 | CC(c1cn2c(C3CCCC3)ncc2c(=O)[nH]1)N1CC(c2ccc(N(C)C)cc2)C1 (stereo not drawn) [Compound 59, 3-cyclopentyl-6-[1-[3-(4-dimethylaminophenyl)azetidin-1-yl]ethyl]-7h-imidazo[1,5-a]pyrazin-8-one]
8.15 |  | CC1CN(Cc2ccccn2)CC1c1cn2c(-c3ccc(F)cc3)ncc2c(=O)[nH]1 (stereo not drawn) [Compound 114, 3-(4-fluorophenyl)-6-[4-methyl-1-(2-pyridylmethyl)pyrrolidin-3-yl]-7h-imidazo[1,5-a]pyrazin-8-one]
7.13 |  | CC1CN(Cc2ccc(F)cc2)CC1c1cn2c(-c3ccc(Cl)cc3)nc(Br)c2c(=O)[nH]1 (stereo not drawn) [Compound 111, 1-bromo-3-(4-chlorophenyl)-6-[1-[(4-fluorophenyl)methyl]-4-methyl-pyrrolidin-3-yl]-7h-imidazo[1,5-a]pyrazin-8-one]
8.30 |  | CC(c1cn2c(C3CCCC3)ncc2c(=O)[nH]1)N1CC(c2ccc(F)cc2)C1 (stereo not drawn) [Compound 40, 3-cyclopentyl-6-[1-[3-(4-fluorophenyl)azetidin-1-yl]ethyl]-7h-imidazo[1,5-a]pyrazin-8-one]
7.66 |  | O=c1[nH]c(CN2CC(Oc3ncccn3)C2)cn2c(C3CCCC3)ncc12 [Compound 39, 3-cyclopentyl-6-[(3-pyrimidin-2-yloxyazetidin-1-yl)methyl]-7h-imidazo[1,5-a]pyrazin-8-one]
7.85 |  | CC1CN(Cc2ccccn2)CC1c1cn2c(-c3ccccc3)ncc2c(=O)[nH]1 (stereo not drawn) [Compound 43, 6-[4-methyl-1-(2-pyridylmethyl)pyrrolidin-3-yl]-3-phenyl-7h-imidazo[1,5-a]pyrazin-8-one]

pIC50 [1] | pIC50 | Structure (SMILES)
 | 7.15 | COc1ccc(C2CN(C(C)c3cn4c(-c5ccc(F)cc5)ncc4c(=O)[nH]3)C2)cc1 (stereo not drawn) [Compound 126, 3-(4-fluorophenyl)-6-[1-[3-(4-methoxyphenyl)azetidin-1-yl]ethyl]-7h-imidazo[1,5-a]pyrazin-8-one]
7.70 |  | O=c1[nH]c(CN2CC(OCc3ccccc3)C2)cn2c(C3CCOCC3)ncc12 [Compound 67, 6-[(3-benzyloxyazetidin-1-yl)methyl]-3-tetrahydropyran-4-yl-7h-imidazo[1,5-a]pyrazin-8-one]
 | 7.80 | CCc1ccc(C2CN(C(C)c3cn4c(-c5ccccc5)ncc4c(=O)[nH]3)C2)cc1 (stereo not drawn) [Compound 30, 6-[1-[3-(4-ethylphenyl)azetidin-1-yl]ethyl]-3-phenyl-7h-imidazo[1,5-a]pyrazin-8-one]
7.47 |  | O=c1[nH]c(CN2CC(OCc3ccc(Cl)cc3)C2)cn2c(-c3ccc(F)cc3)ncc12 [Compound 108, 6-[[3-[(4-chlorophenyl)methoxy]azetidin-1-yl]methyl]-3-(4-fluorophenyl)-7h-imidazo[1,5-a]pyrazin-8-one]
6.96 |  | O=c1[nH]c(CN2CCC(Oc3ncccn3)C2)cn2c(C3CCOCC3)ncc12 (stereo not drawn) [Compound 84, 6-[(3-pyrimidin-2-yloxypyrrolidin-1-yl)methyl]-3-tetrahydropyran-4-yl-7h-imidazo[1,5-a]pyrazin-8-one]
7.18 |  | COc1ccc(C2CN(C(C)c3cn4c(-c5ccccc5)ncc4c(=O)[nH]3)C2)cc1 (stereo not drawn) [Compound 34, 6-[1-[3-(4-methoxyphenyl)azetidin-1-yl]ethyl]-3-phenyl-7h-imidazo[1,5-a]pyrazin-8-one]
 | 7.30 | O=c1[nH]c(CN2CC(OCc3ccccc3)C2)cn2c(C3CCCC3)ncc12 [Compound 56, 6-[(3-benzyloxyazetidin-1-yl)methyl]-3-cyclopentyl-7h-imidazo[1,5-a]pyrazin-8-one]
7.32 |  | O=c1[nH]c(CN2CCC(c3cccc(C(F)(F)F)c3)C2)cn2c(C3CCOC3)ncc12 (stereo not drawn) [Compound 125, 3-tetrahydrofuran-3-yl-6-[[3-[3-(trifluoromethyl)phenyl]pyrrolidin-1-yl]methyl]-7h-imidazo[1,5-a]pyrazin-8-one]
7.77 |  | CC1CN(Cc2ccc(F)cc2)CC1c1cn2c(-c3ccc(F)cc3)ncc2c(=O)[nH]1 (stereo not drawn) [Compound 99, 3-(4-fluorophenyl)-6-[1-[(4-fluorophenyl)methyl]-4-methyl-pyrrolidin-3-yl]-7h-imidazo[1,5-a]pyrazin-8-one]
8.22 |  | Cc1nc2ccccc2nc1OC1CN(Cc2cn3c(C4CCCC4)ncc3c(=O)[nH]2)C1 [Compound 46, 3-cyclopentyl-6-[[3-(3-methylquinoxalin-2-yl)oxyazetidin-1-yl]methyl]-7h-imidazo[1,5-a]pyrazin-8-one]
 | 7.42 | COc1ccc(C2CN(Cc3cn4c(-c5cc(F)cc(F)c5)ncc4c(=O)[nH]3)C2)cc1 [Compound 122, 3-(3,5-difluorophenyl)-6-[[3-(4-methoxyphenyl)azetidin-1-yl]methyl]-7h-imidazo[1,5-a]pyrazin-8-one]
6.86 |  | O=c1[nH]c(CN2CC(Oc3cnc4ccccc4n3)C2)cn2c(C3CCOCC3)ncc12 [Compound 72, 6-[(3-quinoxalin-2-yloxyazetidin-1-yl)methyl]-3-tetrahydropyran-4-yl-7h-imidazo[1,5-a]pyrazin-8-one]
8.40 |  | CC1CN(Cc2ccc3nccnc3c2)CC1c1cn2c(C3CCOCC3)ncc2c(=O)[nH]1 (stereo not drawn) [Compound 97, 6-[4-methyl-1-(quinoxalin-6-ylmethyl)pyrrolidin-3-yl]-3-tetrahydropyran-4-yl-7h-imidazo[1,5-a]pyrazin-8-one]
7.59 |  | COc1ccc(C2CN(Cc3cn4c(C5CCCC5)ncc4c(=O)[nH]3)C2)cc1 [Compound 41, 3-cyclopentyl-6-[[3-(4-methoxyphenyl)azetidin-1-yl]methyl]-7h-imidazo[1,5-a]pyrazin-8-one]
 | 6.90 | CCc1ccc(C2CN(Cc3cn4c(-c5ccccc5)ncc4c(=O)[nH]3)C2)cc1 [Compound 11, 6-[[3-(4-ethylphenyl)azetidin-1-yl]methyl]-3-phenyl-7h-imidazo[1,5-a]pyrazin-8-one]
6.73 |  | CC(NCC1CCCCC1)c1cn2c(-c3ccccc3)ncc2c(=O)[nH]1 (stereo not drawn) [Compound 2, 6-[1-(cyclohexylmethylamino)ethyl]-3-phenyl-7h-imidazo[1,5-a]pyrazin-8-one]

Structure (SMILES) | pIC50 [1] | pIC50
O=c1[nH]c(CN2CC(Oc3ccncc3)C2)cn2c(-c3ccc(F)cc3)ncc12 [Compound 87, 3-(4-fluorophenyl)-6-[[3-(4-pyridyloxy)azetidin-1-yl]methyl]-7h-imidazo[1,5-a]pyrazin-8-one] | 7.38 | 
